Read-outs that look alike come from different tables or passages of the source.
Experiments:
Past. Multocida ATCC6587 = test: Minimum inhibitory concentration vs microorganisms; details: Wellcotest broth plus 7% lysed horse blood, 18 hours, 37°C
Description: (§2) The culture medium used in the test was Wellcotest broth to which lysed horse blood had been added at a final concentration of 7%. The assay was semi-automated employing 96-well Microtiter plates, and growth was monitored visually.

Str. Faecalis CN478 = test: Minimum inhibitory concentration vs microorganisms; details: Wellcotest broth plus 7% lysed horse blood, 18 hours, 37°C
Description: as §2

[1] = tested on: Vibrio Cholerae ATCC14035; test: Minimum inhibitory concentration vs microorganisms; details: Wellcotest broth plus 7% lysed horse blood, 18 hours, 37°C
Description: as §2

Sal. Typhimurium S8587 = test: Minimum inhibitory concentration vs microorganisms; details: Wellcotest broth plus 7% lysed horse blood, 18 hours, 37°C
Description: as §2

Candida Albicans CN1863 = test: Minimum inhibitory concentration vs microorganisms; details: Wellcotest broth plus 7% lysed horse blood, 18 hours, 37°C
Description: as §2

Staph. Aureus CN491 = test: Minimum inhibitory concentration vs microorganisms; details: Wellcotest broth plus 7% lysed horse blood, 18 hours, 37°C
Description: as §2

[2] = target: T1, human dihydrofolate reductase (Homo sapiens, UniProt P00374); test: DHFR I50, human enzyme; assay type: biochemical
T1 sequence (P00374 1-187): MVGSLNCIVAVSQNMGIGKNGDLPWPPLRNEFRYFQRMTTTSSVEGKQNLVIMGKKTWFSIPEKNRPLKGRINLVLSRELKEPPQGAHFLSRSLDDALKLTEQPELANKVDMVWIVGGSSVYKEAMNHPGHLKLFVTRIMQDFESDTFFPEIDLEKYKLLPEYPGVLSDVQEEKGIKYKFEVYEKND

Str. Agalactiae CN1143 = test: Minimum inhibitory concentration vs microorganisms; details: Wellcotest broth plus 7% lysed horse blood, 18 hours, 37°C
Description: as §2

Shig. Flexneri CN6007 = test: Minimum inhibitory concentration vs microorganisms; details: Wellcotest broth plus 7% lysed horse blood, 18 hours, 37°C
Description: as §2

[3] = tested on: Bord. Bronchisep-tica CN385; test: Minimum inhibitory concentration vs microorganisms; details: Bord. Bronchiseptica CN385; Wellcotest broth plus 7% lysed horse blood, 18 hours, 37°C
Description: as §2

Myco. Smegmatis S3254 = test: Minimum inhibitory concentration vs microorganisms; details: Wellcotest broth plus 7% lysed horse blood, 18 hours, 37°C
Description: as §2

[4] = tested on: HCT8 colon adenocarcinoma; test: Cytotoxicity in cell culture (inhibition of cell growth); assay type: cell-based; details: HCT-8, human line, continuous exposure 72 hours
Description: (§1) The cytotoxic effects of various compounds were measured by the inhibition of mammalian cell growth in culture. Cell lines were grown in RPMI-1640 media prepared without folic acid but supplemented with 10nM calcium leucovorin, 25mM HEPES and 10% dialysed fetal bovine serum. In the case of human medulloblastoma cells (Daoy), the media (containing undialysed 10% fetal bovine serum) was pretreated with the enzyme thymidine phosphorylase (20 units/ml for 30 mins. at 37°C) to remove endogenous thymidine. Cells were seeded into 96 well microtiter plates (at densities determined to give log phase growth of control cells at the end of the assay) in 150µl of medium and grown at 37°C in a humidified incubator at 6% CO₂ for 24 hours. Compounds were prepared in media at four times the highest concentration to be tested; two-fold serial dilutions were made, and compounds were added to cells. […] The EC₅₀, defined as the concentration of compound required to reduce growth to 50% of the control, was determined from a plot of per cent inhibition versus log concentration. Cells were continuously exposed to inhibitor for 72 hours.

[5] = tested on: L cells (derived from connective tissue); test: as above; assay type: cell-based; details: mouse line, continuous exposure 72 hours
Description: as §1

GC3C1 colon carcinoma = test: as above; assay type: cell-based; details: GC3/C1, human line, continuous exposure 72 hours
Description: as §1

Daoy medulloblastoma = test: as above; assay type: cell-based; details: human line, continuous exposure 72 hours, medium pretreated with thymidine phosphorylase
Description: as §1

[6] = tested on: MCF7 breast adenocarcinoma; test: as above; assay type: cell-based; details: human line, continuous exposure 72 hours
Description: as §1

[7] = tested on: KB3-1 epidermoid carcinoma; test: as above; assay type: cell-based; details: KB 3-1, human line, continuous exposure 72 hours
Description: as §1

P388 lymphoid neoplasm = test: as above; assay type: cell-based; details: mouse line, continuous exposure 72 hours
Description: as §1

D98 bone marrow cells = test: as above; assay type: cell-based; details: human line, continuous exposure 72 hours
Description: as §1

CCRF-CEM T cells = test: as above; assay type: cell-based; details: human line, continuous exposure 72 hours
Description: as §1

DHFR = target: T2, DHFR (Candida albicans, UniProt P22906); test: biochemical
T2 sequence (P22906 1-192): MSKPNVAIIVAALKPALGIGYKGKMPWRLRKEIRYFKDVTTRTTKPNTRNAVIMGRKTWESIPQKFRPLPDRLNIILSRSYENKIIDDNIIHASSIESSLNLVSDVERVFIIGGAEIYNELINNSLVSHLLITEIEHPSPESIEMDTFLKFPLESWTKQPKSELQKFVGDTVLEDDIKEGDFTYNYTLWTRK

Sal. Typhosa CN512 = test: Minimum inhibitory concentration vs microorganisms; assay type: cell-based; details: Wellcotest broth plus 7% lysed horse blood, 18 hours, 37°C
[8] = tested on: Mycobacterium avium complex (MAC); test: In vitro activity vs Mycobacterium avium complex, radiometric respirometry (BACTEC); assay type: cell-based; details: seven (7) clinical isolates of Myco. avium
Str. Pyogenes CN10 = test: Minimum inhibitory concentration vs microorganisms; details: Wellcotest broth plus 7% lysed horse blood, 18 hours, 37°C
Description: as §2

[9] = Brain distribution in mice (brain and plasma concentrations by HPLC); assay type: in vivo; details: female CD1 mice, 30 or 40 minutes after dose; Compound 1 17mg/kg i.v., Compound 2 10mg/kg i.v., piritrexim 200mg/kg i.p., trimetrexate 100mg/kg i.p.; average of several experiments
Description: Female CD1 mice were dosed with Compound 1 (17mg/kg, i.v.), Compound 2 (10mg/kg, i.v.), piritrexim (200mg/kg,i.p.) or trimetrexate (100mg/kg, i.p.). Brain and plasma samples were collected 30 or 40 minutes later. The drugs were extracted from the samples, and their concentrations were determined using HPLC. The numbers represent the average of several experiments.

[10] = target: T1, human dihydrofolate reductase; test: Enzyme binding affinity (Ki) for human dihydrofolate reductase, Henderson equation; assay type: biochemical; details: 50mM Sorenson's phosphate buffer, pH 7, 45µM dihydrofolate, 65µM NADPH
[11] = tested on: Ehrlich ascites carcinoma; test: Cytotoxicity in cell culture (inhibition of cell growth); assay type: cell-based; details: mouse line, continuous exposure 72 hours
Description: as §1

S180 sarcoma = test: as above; assay type: cell-based; details: S-180, mouse line, continuous exposure 72 hours
Description: as §1

Row | Structure (SMILES) | M I C (Past. Multocida ATCC6587) | M I C (Str. Faecalis CN478) | M I C [1] | M I C (Sal. Typhimurium S8587) [µg/mL] | M I C (Candida Albicans CN1863) [µg/mL] | M I C (Staph. Aureus CN491) [µg/mL] | IC50 [2] [nM] | M I C (Str. Agalactiae CN1143) | M I C (Shig. Flexneri CN6007) [µg/mL] | M I C [3] [µg/mL] | M I C (Myco. Smegmatis S3254) [µg/mL] | EC50 [4] [nM] | EC50 [5] [nM] | EC50 (GC3C1 colon carcinoma) [nM] | EC50 (Daoy medulloblastoma) [nM] | EC50 [6] [nM] | EC50 [7] [nM] | EC50 (P388 lymphoid neoplasm) [nM] | M I C (Sal. Typhosa CN512) [µg/mL] | M I C (Str. Pyogenes CN10) | other results
1 | CCC(CC)n1c(C)cc2c3c(N)nc(N)nc3ccc21 [Compound 2, 1,3-Diamino-7-(1-ethylpropyl)-8-methyl-7H-pyrrolo(3,2-f)quinazoline] | .0001 µg/mL | .0001 µg/mL | .0001 µg/mL | 0.003 | 0.03 | 0.01 | < 1 | .0001 µg/mL | 0.003 | 0.003 | 0.001 | 0.3 | 0.7 | 0.8 | 0.4 | 0.9 | 13 | 0.3 | 0.1 | .0001 µg/mL | EC50 (D98 bone marrow cells): 12 nM; EC50 (CCRF-CEM T cells): < 1 nM; IC50 (DHFR): < 1 nM; inhibition at 1 µg/mL ([8]; 1µg/ml, read-out: range of growth inhibition): 69 to 97%; inhibition at 5 µg/mL ([8]; 5µg/ml, read-out: range of growth inhibition): 97 to 99%; M I C ([8]; roughly translated from growth inhibition, read-out: average MIC): ~1.6 µg/mL; Tissue concentration brain [9]: 2.4 µg/g; Tissue concentration plasma [9]: 0.36 µg/mL; Ki [10]: 0.0014 nM
2 | CCC(CC)n1ccc2c3c(N)nc(N)nc3ccc21 [Compound 1, 1,3-Diamino-7-(1-ethylpropyl)-7H-pyrrolo(3,2-f)quinazoline] | 0.1 µg/mL | 0.1 µg/mL | – | 0.1 | 0.3 | 0.1 | < 1 | 0.1 µg/mL | 0.1 | 0.1 | 0.1 | 1.2 | 2.2 | 3.5 | 8.4 | 38 | 70 | 2.7 | 0.1 | 0.1 µg/mL | EC50 [11]: 1.9 nM; EC50 (D98 bone marrow cells): 45 nM; EC50 (CCRF-CEM T cells): 0.7 nM; EC50 (S180 sarcoma): 4.8 nM; IC50 (DHFR; C.albicans enzyme, read-out: DHFR I50 C.albicans): 4.5 nM; Tissue concentration brain [9]: 5.0 µg/g; Tissue concentration plasma [9]: 0.70 µg/mL; Ki [10]: 0.019 nM
3 | COc1cc(Cc2cnc(N)nc2N)cc(OC)c1OC [Trimethoprim, 2,4-diamino-5-(3,4,5-trimethoxybenzyl)pyrimidine, reference compound] | 0.1 µg/mL | 0.1 µg/mL | 0.3 µg/mL | 0.1 | >100 | 0.1 | – | 0.1 µg/mL | 0.1 | – | 0.3 | – | – | – | – | – | – | – | 0.1 | 0.1 µg/mL | –
